Reference: the supplement of paper PMC10307832

Columns and labels:
Experiment in all cases: relative viability (nuclei count vs DMSO), 5 days (fraction); higher = more cells survive
17-AAG + Bortezomib = compound: C=CCNC1=C2C[C@@H](C)C[C@H](OC)[C@H](O)[C@@H](C)/C=C(\C)[C@H](OC(N)=O)[C@@H](OC)/C=C\C=C(/C)C(=O)NC(=CC1=O)C2=O [17-AAG] + CC(C)C[C@H](NC(=O)[C@H](Cc1ccccc1)NC(=O)c1cnccn1)B(O)O [Bortezomib] (partner 0.002 µM)
Summary of the method: (§1)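 Lung cancer cell lines in 1536-well plates got either a single drug or a fixed anchor-drug dose together with five library-drug doses (not always all listed) in √10 steps, by pin tool, on the day after seeding. Nuclei were counted after 5 days, and relative viability is the treated-to-vehicle ratio of nuclei counts. Values are medians of duplicate plates.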

17-AAG + Pemetrexed = compound: C=CCNC1=C2C[C@@H](C)C[C@H](OC)[C@H](O)[C@@H](C)/C=C(\C)[C@H](OC(N)=O)[C@@H](OC)/C=C\C=C(/C)C(=O)NC(=CC1=O)C2=O [17-AAG] + Nc1nc2[nH]cc(CCc3ccc(C(=O)N[C@@H](CCC(=O)O)C(=O)O)cc3)c2c(=O)[nH]1 [Pemetrexed] (partner 0.2 µM)
Summary of the method: as §1

17-AAG + Alpelisib = compound: C=CCNC1=C2C[C@@H](C)C[C@H](OC)[C@H](O)[C@@H](C)/C=C(\C)[C@H](OC(N)=O)[C@@H](OC)/C=C\C=C(/C)C(=O)NC(=CC1=O)C2=O [17-AAG] + Cc1nc(NC(=O)N2CCC[C@H]2C(N)=O)sc1-c1ccnc(C(C)(C)C(F)(F)F)c1 [Alpelisib] (partner 2 µM)
Summary of the method: as §1

17-AAG + Olaparib = compound: C=CCNC1=C2C[C@@H](C)C[C@H](OC)[C@H](O)[C@@H](C)/C=C(\C)[C@H](OC(N)=O)[C@@H](OC)/C=C\C=C(/C)C(=O)NC(=CC1=O)C2=O [17-AAG] + O=C(c1cc(Cc2n[nH]c(=O)c3ccccc23)ccc1F)N1CCN(C(=O)C2CC2)CC1 [Olaparib] (partner 8 µM)
Summary of the method: as §1

Row | Cell Line | relative viability (17-AAG + Bortezomib; first compound 0.00128 µM) | relative viability (17-AAG + Bortezomib; first compound 0.004048 µM) | relative viability (17-AAG + Bortezomib; first compound 0.0128 µM) | relative viability (17-AAG + Bortezomib; first compound 0.04048 µM) | relative viability (17-AAG + Bortezomib; first compound 0.128 µM) | relative viability (17-AAG + Pemetrexed; first compound 0.00128 µM) | relative viability (17-AAG + Pemetrexed; first compound 0.004048 µM) | relative viability (17-AAG + Pemetrexed; first compound 0.0128 µM) | relative viability (17-AAG + Pemetrexed; first compound 0.04048 µM) | relative viability (17-AAG + Pemetrexed; first compound 0.128 µM) | relative viability (17-AAG + Alpelisib; first compound 0.00128 µM) | relative viability (17-AAG + Alpelisib; first compound 0.004048 µM) | relative viability (17-AAG + Alpelisib; first compound 0.0128 µM) | relative viability (17-AAG + Alpelisib; first compound 0.04048 µM) | relative viability (17-AAG + Alpelisib; first compound 0.128 µM) | relative viability (17-AAG + Olaparib; first compound 0.00128 µM) | relative viability (17-AAG + Olaparib; first compound 0.004048 µM) | relative viability (17-AAG + Olaparib; first compound 0.0128 µM) | relative viability (17-AAG + Olaparib; first compound 0.04048 µM) | relative viability (17-AAG + Olaparib; first compound 0.128 µM)
1 | 201T | 1.14 | 1.12 | 1.03 | 1.05 | 0.649 | 0.317 | 0.342 | 0.361 | 0.23 | 0.213 | 1.07 | 1.03 | 0.984 | 0.943 | 0.818 | 0.843 | 0.857 | 0.849 | 0.802 | 0.748
2 | A549 |  |  |  |  |  |  |  |  |  |  | 0.777 | 0.189 | 0.0463 | 0.056 | 0.0402 | 0.336 | 0.338 | 0.0515 | 0.0272 | 0.0363
3 | A-427 | 1.01 | 1.05 | 0.965 | 0.921 | 0.625 | 0.974 | 0.961 | 0.97 | 0.321 | 0.265 | 1.05 | 1.15 | 1.12 | 1.1 | 0.995 | 0.814 | 0.686 | 0.806 | 0.606 | 0.241
4 | ABC-1 | 0.356 | 0.348 | 0.355 | 0.287 | 0.246 |  |  |  |  |  | 1.05 | 1.19 | 0.691 | 0.976 | 0.919 | 0.677 | 0.847 | 0.737 | 0.954 | 0.486
5 | BEN | 0.917 | 1.14 | 0.997 | 0.64 | 0.232 | 0.756 | 0.882 | 0.716 | 0.526 | 0.247 | 1.02 | 0.978 | 1.04 | 0.84 | 0.257 | 1.06 | 1.03 | 1.01 | 0.666 | 0.358
6 | CAL-12T | 1.11 | 0.899 | 0.904 | 0.726 | 0.469 | 1.17 | 0.951 | 1.15 | 1.04 | 0.207 | 1.43 | 1.09 | 0.993 | 0.706 | 0.658 | 0.754 | 0.697 | 0.725 | 0.371 | 0.211
7 | COR-L23 | 1.12 | 0.948 | 0.946 | 0.408 | 0.0841 | 0.2 | 0.2 | 0.211 | 0.225 | 0.157 | 0.715 | 0.826 | 0.941 | 0.376 | 0.0924 | 0.377 | 0.322 | 0.324 | 0.169 | 0.112
8 | COR-L 105 | 0.548 | 0.729 | 0.746 | 0.581 | 0.507 | 1.17 | 1.32 | 1.02 | 0.968 | 0.687 | 1.08 | 0.898 | 1.19 | 0.746 | 0.817 | 0.601 | 0.71 | 0.778 | 0.55 | 0.515
9 | Calu-6 | 1.06 | 0.92 | 0.896 | 0.317 | 0.183 |  |  |  |  |  | 0.959 | 0.928 | 0.915 | 0.363 | 0.188 | 0.564 | 0.571 | 0.557 | 0.184 | 0.124
10 | ChaGo-K-1 | 1.01 | 0.971 | 0.981 | 0.304 | 0.297 | 0.25 | 0.276 | 0.264 | 0.253 | 0.204 |  |  |  |  |  | 0.439 | 0.453 | 0.388 | 0.366 | 0.257
11 | EBC-1 | 0.536 | 0.252 | 0.185 | 0.203 | 0.165 |  |  |  |  |  | 0.828 | 0.197 | 0.186 | 0.159 | 0.168 | 0.676 | 0.407 | 0.13 | 0.142 | 0.126
12 | EKVX | 1.06 | 0.971 | 0.994 | 0.421 | 0.149 | 0.475 | 0.381 | 0.491 | 0.17 | 0.131 | 0.878 | 0.944 | 0.875 | 0.208 | 0.163 | 0.826 | 0.762 | 0.775 | 0.175 | 0.126
13 | EMC-BAC-2 | 1.15 | 1.11 | 1.13 | 1.01 | 0.209 | 0.504 | 0.536 | 0.548 | 0.448 | 0.383 | 0.836 | 0.761 | 0.754 | 0.813 | 0.381 | 0.533 | 0.516 | 0.316 | 0.334 | 0.273
14 | EPLC-272H | 0.89 | 0.821 | 0.97 | 0.855 | 0.171 | 0.404 | 0.365 | 0.166 | 0.145 | 0.0977 | 1.01 | 0.934 | 0.848 | 0.756 | 0.266 | 0.721 | 0.662 | 0.195 | 0.0777 | 0.0732
15 | H3255 | 0.864 | 0.722 | 0.46 | 0.237 | 0.205 | 0.578 | 0.6 | 0.531 | 0.287 | 0.267 | 0.672 | 0.716 | 0.498 | 0.26 | 0.154 | 0.556 | 0.494 | 0.484 | 0.284 | 0.231
16 | HARA | 1.08 | 1.11 | 1.14 | 1.14 | 0.187 | 0.256 | 0.257 | 0.29 | 0.198 | 0.147 | 0.887 | 0.967 | 0.736 | 0.828 | 0.378 | 0.891 | 0.78 | 1.02 | 1.18 | 0.18
17 | HCC-15 | 1.01 | 0.816 | 0.502 | 0.542 | 0.127 | 0.23 | 0.236 | 0.216 | 0.144 | 0.138 | 0.948 | 0.772 | 0.587 | 0.403 | 0.16 | 0.726 | 0.71 | 0.306 | 0.332 | 0.15
